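Five concentrations, 48 hours, 96-well plates. Here, GI50 denotes the concentration required for 50% inhibition of growth. The concentration for full growth arrest is given as TGI.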
Experiments:
Test in all cases: NCI-60 cell line screen, 48 h; in the data active means GI50 below about 0.43 µM; inactive means the rest
CAKI-1 renal = tested on: CAKI-1 renal
NCI-H522 lung = tested on: NCI-H522 lung
HT29 colon = tested on: HT29 colon
NCI/ADR-RES ovarian = tested on: NCI/ADR-RES ovarian
NCI-H226 lung = tested on: NCI-H226 lung
786-0 renal = tested on: 786-0 renal
SF-295 CNS = tested on: SF-295 CNS
OVCAR-4 ovarian = tested on: OVCAR-4 ovarian
T-47D breast = tested on: T-47D breast
SN12C renal = tested on: SN12C renal
NCI-H460 lung = tested on: NCI-H460 lung
PC-3 prostate = tested on: PC-3 prostate
LOX IMVI melanoma = tested on: LOX IMVI melanoma
RPMI-8226 leukemia = tested on: RPMI-8226 leukemia
MALME-3M melanoma = tested on: MALME-3M melanoma
SNB-19 CNS = tested on: SNB-19 CNS
TK-10 renal = tested on: TK-10 renal
HOP-62 NSCLC = tested on: HOP-62 NSCLC
CCRF-CEM leukemia = tested on: CCRF-CEM leukemia
UO-31 renal = tested on: UO-31 renal
KM12 colon = tested on: KM12 colon
OVCAR-5 ovarian = tested on: OVCAR-5 ovarian
IGROV1 ovarian = tested on: IGROV1 ovarian
M14 melanoma = tested on: M14 melanoma
UACC-257 melanoma = tested on: UACC-257 melanoma
COLO 205 colon = tested on: COLO 205 colon
SF-539 CNS = tested on: SF-539 CNS
SW-620 colon = tested on: SW-620 colon
NCI-H23 lung = tested on: NCI-H23 lung
MOLT-4 leukemia = tested on: MOLT-4 leukemia
SK-MEL-2 melanoma = tested on: SK-MEL-2 melanoma
DU-145 prostate = tested on: DU-145 prostate
SF-268 CNS = tested on: SF-268 CNS
OVCAR-3 ovarian = tested on: OVCAR-3 ovarian
SK-MEL-5 melanoma = tested on: SK-MEL-5 melanoma
BT-549 breast = tested on: BT-549 breast
SK-MEL-28 melanoma = tested on: SK-MEL-28 melanoma
HS 578T breast = tested on: HS 578T breast
SK-OV-3 ovarian = tested on: SK-OV-3 ovarian
HCT-15 colon = tested on: HCT-15 colon
EKVX NSCLC = tested on: EKVX NSCLC
U251 CNS = tested on: U251 CNS
SNB-75 CNS = tested on: SNB-75 CNS
HCT-116 colon = tested on: HCT-116 colon
HOP-92 NSCLC = tested on: HOP-92 NSCLC
MDA-MB-435 = tested on: MDA-MB-435
UACC-62 melanoma = tested on: UACC-62 melanoma
A498 renal = tested on: A498 renal
OVCAR-8 ovarian = tested on: OVCAR-8 ovarian
RXF 393 renal = tested on: RXF 393 renal
A549 NSCLC = tested on: A549 NSCLC
MDA-MB-231 breast = tested on: MDA-MB-231 breast
HCC-2998 colon = tested on: HCC-2998 colon
MCF7 breast = tested on: MCF7 breast

COc1ccc(-c2cnc(-c3ccc(OC)cc3)n2-c2cc(OC)c(OC)c(OC)c2)cc1
45 µM: TGI (UACC-62 melanoma)
35.9 µM: TGI (RXF 393 renal)
61.4 µM: TGI (786-0 renal)
inactive: GI50 (CAKI-1 renal) 23.8 µM | GI50 (NCI-H522 lung) 29.5 µM | GI50 (HT29 colon) 47.7 µM | GI50 (NCI/ADR-RES ovarian) 30.3 µM | GI50 (NCI-H226 lung) 36.7 µM | GI50 (786-0 renal) 24.2 µM | GI50 (SF-295 CNS) 22.1 µM | GI50 (OVCAR-4 ovarian) 33.5 µM | GI50 (T-47D breast) 39.4 µM | GI50 (SN12C renal) 20.8 µM | GI50 (NCI-H460 lung) 30.7 µM | GI50 (PC-3 prostate) 29.4 µM | GI50 (LOX IMVI melanoma) 34.5 µM | GI50 (RPMI-8226 leukemia) 25.7 µM | GI50 (MALME-3M melanoma) 13.3 µM | GI50 (SNB-19 CNS) 19.8 µM | GI50 (TK-10 renal) 20.5 µM | GI50 (HOP-62 NSCLC) 21.4 µM | GI50 (CCRF-CEM leukemia) > 100 µM | GI50 (UO-31 renal) 18.2 µM | GI50 (KM12 colon) 34.9 µM | GI50 (OVCAR-5 ovarian) 45.9 µM | GI50 (IGROV1 ovarian) 28.3 µM | GI50 (M14 melanoma) 44.7 µM | GI50 (UACC-257 melanoma) 22.9 µM | GI50 (COLO 205 colon) 56 µM | GI50 (SF-539 CNS) 23.9 µM | GI50 (SW-620 colon) > 100 µM | GI50 (NCI-H23 lung) 28.6 µM | GI50 (SK-MEL-2 melanoma) 32.3 µM | GI50 (DU-145 prostate) 30.7 µM | GI50 (SF-268 CNS) 30.6 µM | GI50 (OVCAR-3 ovarian) 24.7 µM | GI50 (SK-MEL-5 melanoma) 22.7 µM | GI50 (BT-549 breast) 28.6 µM | GI50 (SK-MEL-28 melanoma) 24.4 µM | GI50 (HS 578T breast) 22.9 µM | GI50 (SK-OV-3 ovarian) 23.1 µM | GI50 (HCT-15 colon) 36 µM | GI50 (EKVX NSCLC) 36.8 µM | GI50 (U251 CNS) 24.4 µM | GI50 (SNB-75 CNS) 12.6 µM | GI50 (HCT-116 colon) 30.9 µM | GI50 (HOP-92 NSCLC) 19.7 µM | GI50 (MDA-MB-435) 31.2 µM | GI50 (UACC-62 melanoma) 17.3 µM | GI50 (A498 renal) 12.1 µM | GI50 (OVCAR-8 ovarian) 19.7 µM | GI50 (RXF 393 renal) 14 µM | GI50 (A549 NSCLC) 23.1 µM | GI50 (MDA-MB-231 breast) 18.4 µM | GI50 (HCC-2998 colon) 45.7 µM | GI50 (MCF7 breast) 38.5 µM
72.3 µM: TGI (SK-OV-3 ovarian)
56.7 µM: TGI (SN12C renal)
80.2 µM: TGI (CAKI-1 renal)
82.2 µM: TGI (A549 NSCLC)
78.2 µM: TGI (DU-145 prostate)
52.1 µM: TGI (HOP-92 NSCLC)
50 µM: TGI (UO-31 renal)
44.9 µM: TGI (HOP-62 NSCLC)
60.5 µM: TGI (SNB-19 CNS)
64.2 µM: TGI (HS 578T breast)
54.9 µM: TGI (SF-539 CNS)
30.1 µM: TGI (SNB-75 CNS)
61.1 µM: TGI (SF-295 CNS)
0.044 µM: TGI (MOLT-4 leukemia)
65 µM: TGI (OVCAR-3 ovarian)
58.3 µM: TGI (OVCAR-4 ovarian)
active: GI50 (MOLT-4 leukemia) 0.0131 µM
86.1 µM: TGI (BT-549 breast)
> 100 µM: TGI (NCI-H522 lung) | TGI (HT29 colon) | TGI (NCI/ADR-RES ovarian) | TGI (NCI-H226 lung) | TGI (T-47D breast) | TGI (NCI-H460 lung) | TGI (PC-3 prostate) | TGI (LOX IMVI melanoma) | TGI (RPMI-8226 leukemia) | TGI (CCRF-CEM leukemia) | TGI (KM12 colon) | TGI (OVCAR-5 ovarian) | TGI (IGROV1 ovarian) | TGI (M14 melanoma) | TGI (COLO 205 colon) | TGI (SW-620 colon) | TGI (NCI-H23 lung) | TGI (SK-MEL-2 melanoma) | TGI (SF-268 CNS) | TGI (HCT-15 colon) | TGI (EKVX NSCLC) | TGI (HCT-116 colon) | TGI (MDA-MB-435) | TGI (HCC-2998 colon) | TGI (MCF7 breast)
74.3 µM: TGI (MDA-MB-231 breast)
39.2 µM: TGI (TK-10 renal)
92 µM: TGI (SK-MEL-28 melanoma)
67.4 µM: TGI (SK-MEL-5 melanoma)
85.9 µM: TGI (UACC-257 melanoma)
30.6 µM: TGI (MALME-3M melanoma)
50.7 µM: TGI (OVCAR-8 ovarian)
39.5 µM: TGI (A498 renal)
69.2 µM: TGI (U251 CNS)

— PubChem BioAssay (NCI)
